# How the values were obtained:
# [1] = Tracer stability: polarization after storage in buffer or boric acid (Table 1); format: physicochemical; design: Polarization (Buffer): unit not given beside the values
# Source text: It was unexpectedly discovered that the presence of a carbon-carbon double bond between the fluorescein moiety and the barbiturate ring portions of the novel tracers of the present invention advantageously orients the tracer for optimal interaction with the antibody.
# [2] = system: antibodies raised against an immunogen having the structure shown in FIG. 28; test: Fluorescence polarization immunoassay cross-reactivity in drug-free normal human urine, tracer of FIG. 5; format: binding, sheep; details: for amount of the test compound found in the resulting human urine: 200 ng/mL added to drug-free urine, secobarbital standard
# Description: (§1) The antibodies of the present invention are prepared by eliciting a response in sheep to the immunogens described supra. The immunogen is administered to animals or to in vitro cultures of immunocompetent cells by a series of innoculations, in a manner well known to those skilled in the art.
# (§2) The tracer formulation presently preferred is 150 nanomolar tracer in: 0.1 molar phosphate buffer at pH 6.2; 5% sodium 5-sulfosalicylate; 0.1% sodium azide; and 0.01% bovine gamma-globulin. The antiserum formulation comprises sheep serum diluted with: 0.1 molar tris buffer at pH 7.5; 0.1% sodium azide; 0.1% bovine gamma-globulin; and 2% ethylene glycol (volume/volume). The dilution buffer comprises: 0.1 molar sodium phosphate at pH 7.5; 0.1% sodium azide; and 0.01% bovine gamma-globulin. The pretreatment solution comprises: 0.01% bovine gamma-globulin; 0.1 molar tris buffer at pH 7.5; 0.1% sodium azide; and 10 mg/mL riboflavin binding protein.
# (§3) A minimum of fifty microliters of urine is required. The calibrators, controls, or unknown samples are pipetted directly into the sample well of the TDx® or ADx® sample cartridge. […] The assay procedure from this point is fully automated.
# (§4) If a manual assay is being performed, then the sample is mixed with the pretreatment solution in dilution buffer and a background reading is taken. The tracer and antibody are then mixed into the test solution. After incubation, a fluorescence polarization reading is taken.
# (§5) The net fluorescence polarization value of each calibrator, control or sample is determined and is printed on the output tape of an instrument such as the Abbott TDx® Analyzer. […] The concentration of each control or sample is read off the stored calibration curve and printed on the output tape.
# Cross-reactivity was tested by the method of the present invention for the commonly-used barbiturates. […]
# The five columns indicate the following information:
# In other words, when 200 ng of secobarbital were added to drug-free normal human urine, approximately 200 ng of secobarbital were detected in the resulting urine sample. Thus, the closer the factor is to 1.0, the more accurate the assay is with respect to the particular test compound analyzed.
# The percent cross-reactivity value presented in column five was obtained by the following mathematical formula: [formula]
# (§6) The five columns in Tables 4(a) and 4(b) indicate the same information as is described above for Table 3(a).
# [3] = system: antibodies raised against an immunogen having the structure shown in FIG. 29; test: Fluorescence polarization immunoassay cross-reactivity in drug-free normal human urine, tracer of FIG. 30; format: binding, sheep; details: for % CR / Conc. Found: tracer FIG. 30; for amount of the test compound found in the resulting human urine: 200 ng/mL added to drug-free urine, secobarbital standard
# Description: as §1, §2, §3, §4, §5
# Cross-reactivity was tested by the method of the present invention for the commonly-used barbiturates. In each case, compounds were assayed on the Abbott Laboratories+ TDx® Clinical Analyzer or the ADx® Drugs of Abuse System after adding a known quantity (200 ng/mL) of the barbiturate test compound to drug-free normal human urine.
# as §6
# [4] = system: antibodies raised against an immunogen having the structure shown in FIG. 29; test: Fluorescence polarization immunoassay cross-reactivity, tracer of FIG. 31; format: binding, sheep; details: tracer FIG. 31
# Description: as §1
compound,measurement,setting,value
CCCC(C)C1(C/C=C/C(=O)NCc2c(O)ccc3c2Oc2cc(O)ccc2C32OC(=O)c3ccccc32)C(=O)NC(=O)NC1=O (stereo not drawn) [drawing 9],Polarization (Buffer),"[1]; 2-8 °C, Day 0",239.63
same,Polarization (Buffer),"[1]; 2-8 °C, Day 1",235.18
same,Polarization (Buffer),"[1]; 2-8 °C, Day 7",235.08
same,Polarization (Buffer),"[1]; 45 °C, Day 1",237.93
same,Polarization (Buffer),"[1]; 45 °C, Day 7",239.72
CCCC(C)C1(CC(=O)NCc2c(O)ccc3c2Oc2cc(O)ccc2C32OC(=O)c3ccccc32)C(=O)NC(=O)NC1=O (stereo not drawn),Polarization (Boric Acid),"[1]; 2-8 °C, Day 0",269.39
same,Polarization (Buffer),"[1]; 2-8 °C, Day 0",247.79
same,Polarization (Boric Acid),"[1]; 2-8 °C, Day 1",271.12
same,Polarization (Buffer),"[1]; 2-8 °C, Day 1",238.09
same,Polarization (Boric Acid),"[1]; 2-8 °C, Day 7",228.62
same,Polarization (Buffer),"[1]; 2-8 °C, Day 7",168.21
same,Polarization (Boric Acid),"[1]; 45 °C, Day 1",62.68
same,Polarization (Buffer),"[1]; 45 °C, Day 1",48.70
same,Polarization (Boric Acid),"[1]; 45 °C, Day 7",> 68.68
same,Polarization (Buffer),"[1]; 45 °C, Day 7",> 48.70
O=C1NC(=O)C(c2ccccc2)(c2ccccc2)N1 [Phenytoin],amount of the test compound found,[2]; 1 μg/mL added,ND (None detected: Concentration less than the sensitivity of the assay (60 ng/mL))
same,amount of the test compound found,[2]; 10 μg/mL added,320 ng/mL
same,factor,[2]; 10 μg/mL added,0.032
same,percent cross reactivity,[2]; 10 μg/mL added,3.20%
same,amount of the test compound found,[2]; 100 μg/mL added,1020 ng/mL
same,factor,[2]; 100 μg/mL added,0.0102
same,percent cross reactivity,[2]; 100 μg/mL added,1.02%
same,% CR,[3]; Conc. Added 100 (ng/mL),0.04%
same,Conc. Found,[3]; Conc. Added 100 (ng/mL),40 ng/mL
same,% CR,[4]; Conc. Added 100 (ng/mL),0.09%
same,Conc. Found,[4]; Conc. Added 100 (ng/mL),90 ng/mL
CCC1(CCC(C)C)C(=O)NC(=O)NC1=O [Amobarbital],factor which overestimates or underestimates the compound assayed for,[2]; 200 ng/mL added,1.55
same,percent cross reactivity,[2]; 200 ng/mL added,155%
same,amount of the test compound found in the resulting human urine,[2],310 ng/mL
same,factor which overestimates or underestimates the compound assayed for,[3]; 200 ng/mL added,0.43
same,percent cross reactivity,[3]; 200 ng/mL added,43%
same,amount of the test compound found in the resulting human urine,[3],85 ng/mL
same,% CR,[3]; Conc. Added 1200 ng/mL,41%
same,Conc. Found,[3]; Conc. Added 1200 ng/mL,490 ng/mL
same,% CR,[4]; Conc. Added 1200 ng/mL,73%
same,Conc. Found,[4]; Conc. Added 1200 ng/mL,870 ng/mL
O=C1NC(=O)C(c2ccccc2)(c2ccc(O)cc2)N1 (stereo not drawn) [p-Hydroxy phenytoin],amount of the test compound found,[2]; 1 μg/mL added,ND (None detected: Concentration less than the sensitivity of the assay (60 ng/mL))
same,amount of the test compound found,[2]; 10 μg/mL added,340 ng/mL
same,factor,[2]; 10 μg/mL added,0.034
same,percent cross reactivity,[2]; 10 μg/mL added,3.40%
same,amount of the test compound found,[2]; 100 μg/mL added,1200 ng/mL
same,factor,[2]; 100 μg/mL added,0.012
same,percent cross reactivity,[2]; 100 μg/mL added,1.20%
same,amount of the test compound found,[3]; 10 μg/mL added,ND (None detected: Concentration less than the sensitivity of the assay (60 ng/mL))
same,amount of the test compound found,[3]; 100 μg/mL added,101 ng/mL
same,factor,[3]; 100 μg/mL added,0.00010
same,percent cross reactivity,[3]; 100 μg/mL added,0.10%
same,amount of the test compound found,[3]; 500 μg/mL added,218 ng/mL
same,factor,[3]; 500 μg/mL added,0.00004
same,percent cross reactivity,[3]; 500 μg/mL added,0.04%
same,% CR,[3]; Conc. Added 500 (ng/mL),0.001%
same,Conc. Found,[3]; Conc. Added 500 (ng/mL),200 ng/mL
same,% CR,[4]; Conc. Added 500 (ng/mL),0.058%
same,Conc. Found,[4]; Conc. Added 500 (ng/mL),290 ng/mL
C=CCC1(C(C)CC)C(=O)NC(=O)NC1=O (stereo not drawn) [Talbutal],factor which overestimates or underestimates the compound assayed for,[2]; 200 ng/mL added,0.90
same,percent cross reactivity,[2]; 200 ng/mL added,90%
same,amount of the test compound found in the resulting human urine,[2],180 ng/mL
same,factor which overestimates or underestimates the compound assayed for,[3]; 200 ng/mL added,2.65
same,percent cross reactivity,[3]; 200 ng/mL added,265%
same,amount of the test compound found in the resulting human urine,[3],531 ng/mL
same,% CR,[3]; Conc. Added 1200 ng/mL,>167%
same,% CR,[4]; Conc. Added 1200 ng/mL,>167%
CC(C(=O)O)c1cccc(Oc2ccccc2)c1 (stereo not drawn) [Fenoprofen],amount of the test compound found,[2]; 215 μg/mL added,180 ng/mL
same,factor,[2]; 215 μg/mL added,0.00084
same,percent cross reactivity,[2]; 215 μg/mL added,0.084%
same,amount of the test compound found,[2]; 430 μg/mL added,290 ng/mL
same,factor,[2]; 430 μg/mL added,0.00067
same,percent cross reactivity,[2]; 430 μg/mL added,0.067%
same,% CR,[3]; Conc. Added 200 (ng/mL),0.015%
same,Conc. Found,[3]; Conc. Added 200 (ng/mL),30 ng/mL
same,% CR,[4]; Conc. Added 200 (ng/mL),0.02%
same,Conc. Found,[4]; Conc. Added 200 (ng/mL),40 ng/mL
CC(C)Cc1ccc(C(C)C(=O)O)cc1 (stereo not drawn) [Ibuprofen],amount of the test compound found,[2]; 1 μg/mL added,ND (None detected: Concentration less than the sensitivity of the assay (60 ng/mL))
same,amount of the test compound found,[2]; 10 μg/mL added,ND (None detected: Concentration less than the sensitivity of the assay (60 ng/mL))
same,amount of the test compound found,[2]; 100 μg/mL added,70 ng/mL
same,factor,[2]; 100 μg/mL added,0.0007
same,percent cross reactivity,[2]; 100 μg/mL added,0.07%
same,% CR,[3]; Conc. Added 1000 (ng/mL),0.002%
same,Conc. Found,[3]; Conc. Added 1000 (ng/mL),20 ng/mL
same,% CR,[4]; Conc. Added 1000 (ng/mL),0.005%
same,Conc. Found,[4]; Conc. Added 1000 (ng/mL),50 ng/mL

# — patent US6472227B1, “Barbiturate assay, tracers, immunogens, antibodies and kit” (Abbott Laboratories, priority 1986, dated 2002)
